# According to patent publication US11339442B2, “Methods of detecting insulator dysfunction and oncogene activation for screening, diagnosis and treatment of patients in need thereof” (THE GENERAL HOSPITAL CORPORATION, priority 2015, dated 2022):
# Entries after “also recorded” stand apart in the source; their conditions may differ. Where two headings read alike, the source gives them in different places.
# Legend:
# [1] = tested on: Factor VII; details: LNP siRNA systems containing the lipid; cited from earlier work
# [2] = tested on: CpG in the CTCF motif of the boundary adjacent to PDGFRA; experiment: DNA methylation quantification (bisulfite sequencing), BT142 gliomaspheres treated with demethylating agent; type: cell-based, human; details: 5 μM 5-azacytidine for 8 days
# Protocol: DNA Methylation Quantification-DNA methylation was analyzed in two ways. For gliomaspheres, genomic DNA was isolated via QiaAmp® DNA minikit (Qiagen®) and subjected to Bisulfite Conversion (EZ DNA Methylation GoldTM Kit-Zymo Research). Bisulfite converted DNA specific to the CTCF binding site (defined by JASPAR^40) in the boundary adjacent to PDGFRA was amplified using the following primers [NT]
# [3] = tested on: CTCF; experiment: CTCF occupancy ChIP qPCR at the boundary adjacent to PDGFRA, BT142 gliomaspheres; type: cell-based, human; details: 5 μM 5-azacytidine for 8 days
# Protocol: Chromatin Immunoprecipitation-Chromatin Immunoprecipitation (ChIP) and sequencing (ChIP-Seq) was performed as described previously^32. Briefly, cultured cells or minced tissue was fixed in 1% formaldehyde and snap frozen in liquid nitrogen and stored at -80° C. for at least overnight. […] ChIP DNA was used to generate sequencing libraries by end repair (End-ItTM DNA repair kit, Epicentre), 3' A base overhang addition via Klenow fragment (NEB), and ligation of barcoded sequencing adapters. Barcoded fragments were amplified via PCR. […] Occupancy of the CTCF site in the boundary element adjacent to the PDGFRA locus was quantified by ChIP qPCR, using the following primers: […] CTCF peak intensity was further normalized as ratio to two invariant peaks, at PSMB1 and SPG11, using the following primers: PSMB1[NT]
# [4] = tested on: acute leukemia of all cell types in relapse; details: end of trial, cited from earlier work
# [5] = tested on: newly diagnosed AML; details: cited from earlier work
# [6] = tested on: PDGFRA; details: BT142 gliomaspheres, 5 μM 5-azacytidine for 8 days
# [7] = preclinical studies; cited from earlier work
# [8] = target: T1, FIP1L1-PDGFRA (Homo sapiens, UniProt P16234); details: FIP1L1-PDGFRA versus BCR-ABL; cited from earlier work
# T1 construct: the other entry of the earlier key: FIP1L1 (Q6UN15, Pre-mRNA 3'-end-processing factor FIP1)
# [9] = compared with aza; cited from earlier work
# [10] = tested on: GSC6 gliomaspheres; experiment: Cell growth assay (CellTiter-Glo), GSC6 cells expressing CRISPR; type: cell-based, human; details: 1 μM Dasatinib or 500 nM Crenolanib
# Protocol: Cell Growth Assay—For the cell growth assay, 2,500 dissociated viable GSC6 cells expressing CRISPR and either GFP or Insulator targeting sgRNA (see above) were plated in […], of media in an opaque-walled tissue culture 96 well plate, in 1 μM Dasatinib, 500 nM Crenolanib, or equivalent DMSO (1:10,000) as a vehicle control. Cell growth was analyzed at days 3, 5, and 7 for Dasatinib, or days 3, 7, and 10 for Crenolanib, using CellTiter-Glo® reagent (Promega™) following the manufacturer's protocol. Data was normalized across days using an ATP standard curve.
# [11] = tested on: MDS (RAEBT); details: patients with RAEBT, 3-day course 15 mg/m^2 daily; cited from earlier work
# [12] = tested on: advanced leukemia or MDS; details: cited from earlier work
# [13] = tested on: CMLs in transformation; details: first 13 patients, 100 mg/m^2 over 6 h every 12 h for 5 days; cited from earlier work
# [14] = preclinical in vitro studies; cited from earlier work
# [15] = tested on: PDGFRA insulator; experiment: ChIP-qPCR for CTCF and H3K9me3 after dCas9 / dCas9-KRAB recruitment, HEK293 cells; type: cell-based
# Protocol: Applicants performed these experiments at the PDGFRA insulator in HEK293 cells (FIG. 16A, Top). […] HEK293 cells were seeded into 100 mm cell culture dishes two days before transfection and grown to 60-70% confluency. […] of either dCas9 or dCas9-KRAB constitutive expression vector (JDS286 and Addgene Plasmid #50919 respectively) (FIG. 18) and 1 ug of guide RNA expression vector (pXPR1_noCas, Broad GPP) (FIG. 19) were mixed in 450ul OptiMEM. 27ul of FugeneHD was added and tubes were vortexed for two times one second, incubated at room temp for ten minutes and added dropwise to cell culture dishes.
# Cells were harvested three days after transfection and crosslinked in 1% formaldehyde at 37 C for 10 min. ChIP-qPCR was performed as previously described. Briefly, cells were lysed on ice, sonicated in 0.3% SDS for 5 minutes total time at ˜10W power, incubated with the relevant antibody overnight at 4C with rotation after dilution to 0.1% SDS. Antibody-bound chromatin was isolated using protein G magnetic beads. Bound complex is washed several times and eluted off the beads at 65C for 1h with shaking. Eluted complex is treated with RNase for 30 min at 37C and protinase K for 3h at 63C while crosslinks are reversed concurrently. IP DNA is cleaned up using a 2× Ampure XP DNA bead cleanup as per manufacturer's instructions.
# [16] = tested on: OLIG2 insulator; experiment: as above; type: cell-based
# T1 sequence (P16234 593-1089 limits assumed): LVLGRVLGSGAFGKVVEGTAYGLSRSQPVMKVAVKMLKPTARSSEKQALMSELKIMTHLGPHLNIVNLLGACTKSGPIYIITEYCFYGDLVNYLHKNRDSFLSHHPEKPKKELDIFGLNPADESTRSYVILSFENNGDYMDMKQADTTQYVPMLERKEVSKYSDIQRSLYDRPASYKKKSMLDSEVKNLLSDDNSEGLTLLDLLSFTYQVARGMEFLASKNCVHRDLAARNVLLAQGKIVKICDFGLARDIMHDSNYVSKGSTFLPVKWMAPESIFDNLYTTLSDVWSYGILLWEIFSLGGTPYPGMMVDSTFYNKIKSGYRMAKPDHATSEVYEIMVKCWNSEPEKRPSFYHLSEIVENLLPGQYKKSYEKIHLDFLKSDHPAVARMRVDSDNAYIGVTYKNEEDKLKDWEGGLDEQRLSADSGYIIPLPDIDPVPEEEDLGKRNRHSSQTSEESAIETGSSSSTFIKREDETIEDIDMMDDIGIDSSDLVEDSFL
molecule,measurement,setting,value
"1,2-dilinoleyloxy-keto-N,N-dimethyl-3-aminopropane [DLinKDMA]",gene silencing potency in hepatocytes in vivo (rank series),[1],DLinKC2-DMA>DLinKDMA>DLinDMA>>DLinDAP
"Nc1ncn([C@@H]2O[C@H](CO)[C@@H](O)[C@H]2O)c(=O)n1 [5-aza, 5-azacytidine]",reduction of methylation of the CTCF motif,[2],~2.5 fold
same,increase of CTCF occupancy,[3],~1.7 fold
same,overall response rate,[4]; adult patients with acute leukemia in relapse,9.2%
same,patients achieving complete remission,[4],nine
same,patients achieving partial remission,[4],two
same,patients with complete or partial remission,"[5]; 15 adult patients, 75 mg/m^2 daily s.c. for 7 days every 4 weeks",Eight
same,average number of cycles to remission,[5]; in vivo,three
same,"duration of response, average",[5]; patients who achieved complete remission,"8 (range, 6-13) cycles"
same,"duration of response, average",[5]; patients who achieved partial remission,"3 (range, 2-3) cycles"
same,down-regulation of PDGFRA expression,[6],~5 fold
C[C@@H](Nc1nc(N[C@H](C)C(F)(F)F)nc(-c2cccc(Cl)n2)n1)C(F)(F)F [AG-881],blood-brain barrier penetration,[7],fully penetrate the blood-brain barrier
"CCCCC/C=C\C/C=C\CCCCCCCC(=O)OCC(CN(C)C)OC(=O)CCCCCCC/C=C\C/C=C\CCCCC (stereo not shown) [DLinDAP, 1,2-dilineoyl-3-dimethylammonium-propane]",gene silencing potency in hepatocytes in vivo (rank series),[1],DLinKC2-DMA>DLinKDMA>DLinDMA>>DLinDAP
"CCCCC/C=C\C/C=C\CCCCCCCCOCC(CN(C)C)OCCCCCCCC/C=C\C/C=C\CCCCC (stereo not shown) [DLinDMA, 1,2-dilinoleyloxy-3-N,N-dimethylaminopropane]",gene silencing potency in hepatocytes in vivo (rank series),[1],DLinKC2-DMA>DLinKDMA>DLinDMA>>DLinDAP
"CCCCC/C=C\C/C=C\CCCCCCCCC1(CCCCCCCC/C=C\C/C=C\CCCCC)OCC(CCN(C)C)O1 (stereo not shown) [DLinKC2-DMA, 1,2-dilinoleyl-4-(2-dimethylaminoethyl)-[1,3]-dioxolane]",gene silencing potency in hepatocytes in vivo (rank series),[1],DLinKC2-DMA>DLinKDMA>DLinDMA>>DLinDAP
Cc1ccc(NC(=O)c2ccc(CN3CCN(C)CC3)cc2)cc1Nc1nccc(-c2cccnc2)n1 [Imatinib],IC50 lower as compared to BCR-ABL,[8],250 fold
O=c1ncccn1[C@@H]1O[C@H](CO)[C@@H](O)[C@H]1O [Zebularine],stability,[9],more stable than aza
CC1(COc2ccc3c(c2)ncn3-c2ccc3cccc(N4CCC(N)CC4)c3n2)COC1 [crenolanib],effect on the growth advantage of insulator CRISPR gliomaspheres,[10],abrogated
same,effect on the growth advantage of insulator CRISPR gliomaspheres,[10]; listed as Crenolanib,eliminated
"Nc1ncn([C@H]2C[C@H](O)[C@@H](CO)O2)c(=O)n1 [decitabine, 5-aza-2′-deoxycytidine]",percentage of responders,[11],70%
same,complete response (CR),[12]; 37 patients with AML,14%
same,partial response (PR),[12]; 37 patients with AML,8%
same,response rate,[12]; comparison group to the higher doses / longer cycles,45%
same,patients achieving CR,[12]; five patients with CML,two
same,patients achieving PR,[12]; five patients with CML,two
same,response rate,[12]; higher doses (20 mg/m^2 for 10 days) and longer treatment cycles (15 mg/m2 for 20 days),11%
same,patients in whom only one cycle of therapy was required to achieve a CR,[12]; in vivo,eight of nine
same,objective responses,"[12]; overall, 48 patients",33%
same,complete response (CR),[12]; seven patients with MDS,28.5%
same,patients achieving PR,[12]; seven patients with MDS,two
same,adverse effect,[13],severe prolonged myelosuppression
Cc1cn(-c2cc(NC(=O)c3ccc(C)c(Nc4nccc(-c5cccnc5)n4)c3)cc(C(F)(F)F)c2)cn1 [nilotinib],potency relative to imatinib (factor),[14],20 to 50
dCas9: enzymatically inactive CRISPR enzyme recruited by guide RNA to a CTCF insulator,CTCF binding at the PDGFRA insulator,[15],potently disrupts CTCF binding; also recorded: can reduce CTCF binding
same,CTCF binding at the OLIG2 insulator,[16],can disrupt CTCF binding; also recorded: can reduce CTCF binding
